In series [1] the target is BCL2 F104I (Homo sapiens, UniProt P10415, F104I). The experiment in a line: TR-FRET competitive binding assay, BCL2 F104I. Conditions: Ki determined from IC50, read-out: TR_FRET EKI_Bcl2 F104I. Summed up: (§1)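 Competitive TR-FRET displacement of fluorescein-PUMA peptide (2 or 20 nM) from 0.5 nM terbium-labelled N-terminal Halo-fusion BCL2 (1-207, wild type or mutant) or BCLXL (2-196), expressed in E. coli. Buffer 50 mM Hepes pH 7.5, 150 mM NaCl, 5% DMSO; 2 h at 23°C. 520/495 nm ratio fitted over 11 points for IC50, converted to Ki.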

Series [2] has as its system platelets. The experiment in a line: Platelet depletion in SCID mice. It is filed as in vivo. The settings on record: 25 mg/kg IV bolus, vs control group; for Platelet loss (%) 6 h: 6 h after dosing; for Platelet loss (%) 24 h: 24 h after dosing. Here is the method:
(§2) Pharmacokinetic (PK) and platelet toxicity were investigated in SCID mice. Compounds were administered at 25 mg/kg by IV bolus, and formulated in PEG/Ethanol/NaCl 0.9% (40/10/50 v/v/v).
(§3) Blood samples (3 animals/time point and 3 time points/animal) were collected over 24 h after dosing: 0.05 h, 0.5 h, 1 h, 3 h, 6 h and 24 h for PK and 6 h and 24 h for platelets.
(§4) PK samples were analyzed by liquid chromatography using tandem mass spectrometry detection (LC-MS/MS) and platelet count (109/L) was measured using an hematology analyzer. Percentage of platelet loss was calculated at both time points (T+6 h and 24 h) as compared to a control group of 6 animals. PK parameters (Cinf and AUC24, which correspond to the concentration at the end of bolus administration and the area under curve over 24 h, respectively) were also determined using a non-compartmental analysis.

Series [3] has as its system KMS-12-PE Bcl-2 WT. The experiment in a line: In vitro cytotoxicity CellTiter-Glo 48 h, KMS-12-PE Bcl-2 WT. Format: cell-based. The settings on record: Homo sapiens, KMS-12-PE, C50 = concentration needed to reach 50% of the cellular viability. A digest of the protocol: (§5)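 KMS-12-PE myeloma cells lentivirally transduced with Bcl-2 WT or G101V (TagRFP-sorted), exposed to compound 11-point dose-response for 48 h at 37 °C, 5% CO2. Viability read by CellTiter-Glo ATP luminescence; C50 is the concentration giving 50% cellular viability.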

The nature of series [4]: Pharmacokinetics in SCID mice. The settings on record: 25 mg/kg IV bolus; for PK parameters Cinf: concentration at the end of bolus administration; for AUC: mouse, blood, area under curve over 24 h, read-out: PK parameters AUC24. Format: in vivo. Here is the method: as §2, §3, §4
The target of series [5] is BCL2 D103Y (Homo sapiens, UniProt P10415, D103Y). The experiment in a line: TR-FRET competitive binding assay, BCL2 D103Y. Conditions: Ki determined from IC50, read-out: TR_FRET EKI_Bcl2 D103Y. Summed up: as §1
In series [6] the target is BCLXL WT (Homo sapiens (Human), UniProt Q07817). The experiment in a line: TR-FRET competitive binding assay, BCLXL WT. Conditions: for Ki: BCLXL WT, Ki determined from IC50, read-out: TR_FRET EKI BclxL; for TR_FRET EKI BCLxL/WT selectivty ratio: ratio Ki BCLxL / Ki BCL2 WT. Summed up: as §1
Sequence of BCLXL WT (Q07817 other isoform, or with tags, fused parts or gaps): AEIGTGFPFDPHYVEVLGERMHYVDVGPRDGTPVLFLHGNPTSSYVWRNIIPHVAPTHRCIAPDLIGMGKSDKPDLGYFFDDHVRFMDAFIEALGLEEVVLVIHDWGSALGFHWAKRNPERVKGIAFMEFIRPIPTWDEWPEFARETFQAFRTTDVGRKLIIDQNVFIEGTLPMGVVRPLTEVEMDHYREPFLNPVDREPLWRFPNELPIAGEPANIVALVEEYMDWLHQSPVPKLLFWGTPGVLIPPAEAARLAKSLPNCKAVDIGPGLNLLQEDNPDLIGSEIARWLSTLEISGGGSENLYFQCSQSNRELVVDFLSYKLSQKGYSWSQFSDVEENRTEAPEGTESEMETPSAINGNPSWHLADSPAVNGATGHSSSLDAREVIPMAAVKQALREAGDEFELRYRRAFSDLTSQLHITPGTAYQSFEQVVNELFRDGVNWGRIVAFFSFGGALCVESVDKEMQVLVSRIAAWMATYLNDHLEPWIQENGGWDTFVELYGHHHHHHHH
Series [7] has as its system KMS-12-PE Bcl-2 G101V. The experiment in a line: In vitro cytotoxicity CellTiter-Glo 48 h, KMS-12-PE Bcl-2 G101V. It is filed as cell-based. Conditions: for Ratio (G101V/WT): C50 KMS-12-PE Bcl-2 G101V over C50 KMS-12-PE Bcl-2 WT; for IC50: Homo sapiens, KMS-12-PE, 48 h, CellTiter-Glo, C50 = concentration needed to reach 50% of the cellular viability. Summed up:
as §5

Series [8] has as its target BCL2 D111A (Homo sapiens, UniProt P10415, D111A). The experiment in a line: TR-FRET competitive binding assay, BCL2 D111A. The settings on record: Ki determined from IC50, read-out: TR_FRET EKI_Bcl2 D111A. A digest of the protocol:
as §1

Series [9] addresses BCL2 WT (Homo sapiens (Human), UniProt P10415). The experiment in a line: TR-FRET competitive binding assay, BCL2 WT. The settings on record: Ki determined from IC50, read-out: TR_FRET EKI_Bcl2 WT. A digest of the protocol:
as §1

Series [10] concerns BCL2 G101V. Description: TR-FRET competitive binding assay, BCL2 G101V. More on the design: species or system human. The settings on record: ratio Ki BCL2 G101V / Ki BCL2 WT. A digest of the protocol: as §1
The target of series [11] is BCL2 G101V (Homo sapiens, UniProt P10415, G101V). Description: TR-FRET competitive binding assay, BCL2 G101V. The settings on record: BCL2 G101V; Ki determined from IC50; read-out: TR_FRET EKI_Bcl2 G101V. Summed up: as §1

Take `COc1ccc(CC(=O)N2CCc3cc(-c4cc(C(=O)N(c5ccc(O)cc5)c5cc(C#N)n(C)c5C)c(C)n4C)c(C(=O)N4Cc5ccccc5C[C@H]4CN4CCCCC4)cc3C2)c(F)c1` [Example 33, N-(5-cyano-1,2-dimethylpyrrol-3-yl)-5-{2-[2-(2-fluoro-4-methoxyphenyl)acetyl]-7-{[(3S)-3-(piperidin-1-ylmethyl)-3,4-dihydro-1H-isoquinolin-2-yl]carbonyl}-3,4-dihydro-1H-isoquinolin-6-yl}-N-(4-hydroxyphenyl)-1,2-dimethylpyrrole-3-carboxamide]: the Ki in [1] turned out to be 0.5 nM; in [5], 0.22 nM; in series [6], 3.7 nM; in series [8], 0.1 nM; in series [9] it was 0.15 nM; in series [11], 0.5 nM. Also, the “Platelet loss (%) 6 h” value in [2] turned out to be 33.5%. In series [2], the “Platelet loss (%) 24 h” value came to 22.5%. Moreover, the IC50 was 0.0054 µM in series [3] and 0.0491 µM in series [7]. Also, the “PK parameters Cinf” value in series [4] was 8.4 µM. For the same compound, the AUC in series [4] amounted to 12.6 µM·h. In addition, the “TR_FRET EKI BCLxL/WT selectivty ratio” value in [6] is recorded as 24.7. In addition, in series [7], the “Ratio (G101V/WT)” value is on record as 9.09. The “TR_FRET EKI G101V/WT selectivty ratio” value in series [10] stood at 3.3.

On to `Cc1c(N(C(=O)c2cc(-c3cc4c(cc3C(=O)N3Cc5ccccc5C[C@H]3CN3CCCCC3)CN(C(=O)Cc3ccc(OCCC5CCOCC5)cc3F)CC4)n(C)c2C)c2ccc(O)cc2)cc(C#N)n1C` [Example 34, N-(5-cyano-1,2-dimethylpyrrol-3-yl)-5-[2-(2-{2-fluoro-4-[2-(oxan-4-yl)ethoxy]phenyl}acetyl)-7-{[(3S)-3-(piperidin-1-ylmethyl)-3,4-dihydro-1H-isoquinolin-2-yl]carbonyl}-3,4-dihydro-1H-isoquinolin-6-yl]-N-(4-hydroxyphenyl)-1,2-dimethylpyrrole-3-carboxamide], for which the Ki in series [1] came to 0.27 nM; in [5], 0.52 nM; in series [6], 5.3 nM; in series [8] it was 0.2 nM; in series [9], 0.34 nM; in series [11] it was 0.9 nM. Further, in [2], the “Platelet loss (%) 6 h” value amounted to 33.7%. In addition, the “Platelet loss (%) 24 h” value in [2] is given as 18.2%. Moreover, the values for the IC50 in series [3] and in series [7] were 0.0052 µM and 0.0275 µM, respectively. Moreover, the “PK parameters Cinf” value in series [4] stood at 8.2 µM. In [4], the AUC was 9.7 µM·h. In addition, the “TR_FRET EKI BCLxL/WT selectivty ratio” value in series [6] is listed as 15.6. The “Ratio (G101V/WT)” value in series [7] turned out to be 5.29. For the same compound, the “TR_FRET EKI G101V/WT selectivty ratio” value in series [10] came to 2.6.

Take `Cc1c(N(C(=O)c2cc(-c3cc4c(cc3C(=O)N3Cc5ccccc5C[C@H]3C)CN(C(=O)Cc3ccc(OCCN5C[C@@H](C)O[C@@H](C)C5)cc3)CC4)n(C)c2C)c2ccc(O)cc2)cc(C#N)n1C` [Example 39, N-(5-cyano-1,2-dimethyl-1H-pyrrol-3-yl)-5-{2-[2-(4-{2-[cis-2,6-dimethylmorpholin-4-yl]ethoxy}phenyl)acetyl]-7-[(3R)-3-methyl-1,2,3,4-tetrahydroisoquinoline-2-carbonyl]-1,2,3,4-tetrahydroisoquinolin-6-yl}-N-(4-hydroxyphenyl)-1,2-dimethyl-1H-pyrrole-3-carboxamide]: the Ki stood at 0.46 nM in series [1]; 0.71 nM in [5]; 2.3 nM in series [6]; 0.18 nM in [8]; 0.2 nM in series [9]; 0.7 nM in series [11]. Also, in [2], the “Platelet loss (%) 6 h” value turned out to be 26.9%. Moreover, the “Platelet loss (%) 24 h” value in [2] is on record as 20.2%. The IC50 amounted to 0.0056 µM in [3] and 0.023 µM in [7]. Besides, the “PK parameters Cinf” value in [4] was found to be 26.5 µM. For the same compound, the AUC in [4] worked out at 26.7 µM·h. Further, the “TR_FRET EKI BCLxL/WT selectivty ratio” value in series [6] is listed as 11.5. In addition, the “Ratio (G101V/WT)” value in series [7] is on record as 4.07. For the same compound, the “TR_FRET EKI G101V/WT selectivty ratio” value in [10] is 3.5.

As for `Cc1c(N(C(=O)c2cc(-c3cc4c(cc3C(=O)N3Cc5ccccc5C[C@H]3CN3CCOCC3)CN(C(=O)Cc3ccc(OCCC5CCOCC5)cc3F)CC4)n(C)c2C)c2ccc(O)cc2)cc(C#N)n1C` [Example 54, N-(5-cyano-1,2-dimethyl-pyrrol-3-yl)-5-[2-[2-[2-fluoro-4-(2-tetrahydropyran-4-ylethoxy)phenyl]acetyl]-7-[(3S)-3-(morpholinomethyl)-3,4-dihydro-1H-isoquinoline-2-carbonyl]-3,4-dihydro-1H-isoquinolin-6-yl]-N-(4-hydroxyphenyl)-1,2-dimethyl-pyrrole-3-carboxamide], the Ki in series [1] is 0.52 nM; in [5] it was 0.11 nM; in series [6] it was 2.3 nM; in series [8], 0.4 nM; in series [9], 0.1 nM; in [11], 0.3 nM. The “Platelet loss (%) 6 h” value in series [2] amounted to 28.6%. Also, in series [2], the “Platelet loss (%) 24 h” value is 22.5%. Besides, the IC50 in series [3] amounted to 0.0057 µM; in series [7] it was 0.024 µM. In addition, in series [4], the “PK parameters Cinf” value came out at 11.4 µM. For the same compound, in series [4], the AUC was 9.2 µM·h. Moreover, the “TR_FRET EKI BCLxL/WT selectivty ratio” value in [6] is recorded as 24.0. In addition, the “Ratio (G101V/WT)” value in series [7] was 4.23. Besides, the “TR_FRET EKI G101V/WT selectivty ratio” value in series [10] amounted to 2.7.

Take `Cc1c(N(C(=O)c2cc(-c3cc4c(cc3C(=O)N3Cc5ccccc5C[C@H]3C)CN(C(=O)Cc3ccc(OCCN5CCO[C@H](C)C5)cc3)CC4)n(C)c2C)c2ccc(O)cc2)cc(C#N)n1C` [Example 56, N-(5-cyano-1,2-dimethyl-1H-pyrrol-3-yl)-N-(4-hydroxyphenyl)-1,2-dimethyl-5-{7-[(3R)-3-methyl-1,2,3,4-tetrahydroisoquinoline-2-carbonyl]-2-(2-{4-[2-((2R)-2-methylmorpholin-4-yl)ethoxy]phenyl}acetyl)-1,2,3,4-tetrahydroisoquinolin-6-yl}-1H-pyrrole-3-carboxamide]: the Ki in series [1] amounted to 0.28 nM; in series [5] it was 0.19 nM; in [6], 1.6 nM; in [8], 0.17 nM; in series [9], 0.06 nM; in [11], 0.2 nM. The “Platelet loss (%) 6 h” value in [2] was found to be 43.5%. Also, in series [2], the “Platelet loss (%) 24 h” value is given as 26.9%. Moreover, the IC50 was 0.0048 µM in [3] and 0.0201 µM in [7]. Also, the “PK parameters Cinf” value in series [4] was 48.5 µM. Further, in series [4], the AUC came to 30.5 µM·h. Further, the “TR_FRET EKI BCLxL/WT selectivty ratio” value in series [6] amounted to 26.7. In addition, the “Ratio (G101V/WT)” value in series [7] is on record as 4.21. The “TR_FRET EKI G101V/WT selectivty ratio” value in series [10] came out at 2.8.

Source of the values: patent publication US20250179047A1, “5-[7-(3,4-DIHYDRO-1H-ISOQUINOLINE-2-CARBONYL)-1,2,3,4 TETRAHYDROISOQUINOLIN-6-YL]-1H-PYRROLE-3-CARBOXAMIDE DERIVATIVES, PHARMACEUTICAL COMPOSITIONS CONTAINING THEM AND THEIR USES AS PRO-APOPTOTIC AGENTS” (LES LABORATOIRES SERVIER, priority 2022, published 2025).
